One experiment addresses ROCK1 (Homo sapiens (Human), UniProt Q13464). As to the kind of experiment: ROCK assay (LABCHIP peptide phosphorylation), ROCK1. The following applies: 5 μM ATP, 1.5 μM peptide substrate; read-out: ROCK1 IC50. In kind it is biochemical.
The next experiment addresses ROCK2 (Homo sapiens (Human), UniProt O75116). As to the kind of experiment: ROCK assay (LABCHIP peptide phosphorylation), ROCK2. It counts as biochemical. The following applies: 5 μM ATP, 1.5 μM peptide substrate.

Chain of ROCK2 (O75116 whole entry, species assumed): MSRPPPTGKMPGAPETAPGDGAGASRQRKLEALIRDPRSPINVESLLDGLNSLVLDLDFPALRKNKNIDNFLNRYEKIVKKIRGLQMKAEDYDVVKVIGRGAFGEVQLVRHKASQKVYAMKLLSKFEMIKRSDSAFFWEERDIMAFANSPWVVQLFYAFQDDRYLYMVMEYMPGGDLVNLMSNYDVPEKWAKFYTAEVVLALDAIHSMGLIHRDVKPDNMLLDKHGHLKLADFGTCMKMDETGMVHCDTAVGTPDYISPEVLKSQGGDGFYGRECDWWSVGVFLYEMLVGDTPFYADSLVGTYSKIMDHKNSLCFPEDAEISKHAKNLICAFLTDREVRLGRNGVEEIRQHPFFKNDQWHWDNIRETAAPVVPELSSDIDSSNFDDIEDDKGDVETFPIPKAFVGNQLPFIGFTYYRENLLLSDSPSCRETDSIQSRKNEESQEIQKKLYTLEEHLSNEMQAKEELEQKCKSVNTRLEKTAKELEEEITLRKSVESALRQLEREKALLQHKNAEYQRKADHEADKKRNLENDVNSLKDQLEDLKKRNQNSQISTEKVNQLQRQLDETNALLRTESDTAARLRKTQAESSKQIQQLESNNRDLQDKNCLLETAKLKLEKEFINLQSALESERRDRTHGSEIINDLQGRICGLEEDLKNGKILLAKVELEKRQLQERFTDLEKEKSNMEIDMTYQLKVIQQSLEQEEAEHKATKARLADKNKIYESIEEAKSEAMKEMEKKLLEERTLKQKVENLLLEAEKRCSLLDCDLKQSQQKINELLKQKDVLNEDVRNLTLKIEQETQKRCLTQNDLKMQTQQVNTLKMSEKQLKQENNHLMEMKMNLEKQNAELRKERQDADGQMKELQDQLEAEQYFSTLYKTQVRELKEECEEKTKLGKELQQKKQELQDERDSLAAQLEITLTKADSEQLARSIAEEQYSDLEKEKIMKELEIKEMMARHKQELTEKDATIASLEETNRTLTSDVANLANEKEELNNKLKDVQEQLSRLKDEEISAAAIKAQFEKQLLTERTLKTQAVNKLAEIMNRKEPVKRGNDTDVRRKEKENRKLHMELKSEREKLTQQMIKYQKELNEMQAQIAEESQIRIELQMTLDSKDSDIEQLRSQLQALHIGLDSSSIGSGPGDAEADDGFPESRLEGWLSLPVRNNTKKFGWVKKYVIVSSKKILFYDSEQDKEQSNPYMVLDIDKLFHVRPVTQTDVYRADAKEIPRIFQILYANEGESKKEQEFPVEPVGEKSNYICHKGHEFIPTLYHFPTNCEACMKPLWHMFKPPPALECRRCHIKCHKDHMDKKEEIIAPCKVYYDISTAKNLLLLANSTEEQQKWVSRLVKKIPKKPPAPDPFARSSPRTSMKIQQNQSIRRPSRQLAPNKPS
Chain of ROCK1 (Q13464 whole entry, species assumed): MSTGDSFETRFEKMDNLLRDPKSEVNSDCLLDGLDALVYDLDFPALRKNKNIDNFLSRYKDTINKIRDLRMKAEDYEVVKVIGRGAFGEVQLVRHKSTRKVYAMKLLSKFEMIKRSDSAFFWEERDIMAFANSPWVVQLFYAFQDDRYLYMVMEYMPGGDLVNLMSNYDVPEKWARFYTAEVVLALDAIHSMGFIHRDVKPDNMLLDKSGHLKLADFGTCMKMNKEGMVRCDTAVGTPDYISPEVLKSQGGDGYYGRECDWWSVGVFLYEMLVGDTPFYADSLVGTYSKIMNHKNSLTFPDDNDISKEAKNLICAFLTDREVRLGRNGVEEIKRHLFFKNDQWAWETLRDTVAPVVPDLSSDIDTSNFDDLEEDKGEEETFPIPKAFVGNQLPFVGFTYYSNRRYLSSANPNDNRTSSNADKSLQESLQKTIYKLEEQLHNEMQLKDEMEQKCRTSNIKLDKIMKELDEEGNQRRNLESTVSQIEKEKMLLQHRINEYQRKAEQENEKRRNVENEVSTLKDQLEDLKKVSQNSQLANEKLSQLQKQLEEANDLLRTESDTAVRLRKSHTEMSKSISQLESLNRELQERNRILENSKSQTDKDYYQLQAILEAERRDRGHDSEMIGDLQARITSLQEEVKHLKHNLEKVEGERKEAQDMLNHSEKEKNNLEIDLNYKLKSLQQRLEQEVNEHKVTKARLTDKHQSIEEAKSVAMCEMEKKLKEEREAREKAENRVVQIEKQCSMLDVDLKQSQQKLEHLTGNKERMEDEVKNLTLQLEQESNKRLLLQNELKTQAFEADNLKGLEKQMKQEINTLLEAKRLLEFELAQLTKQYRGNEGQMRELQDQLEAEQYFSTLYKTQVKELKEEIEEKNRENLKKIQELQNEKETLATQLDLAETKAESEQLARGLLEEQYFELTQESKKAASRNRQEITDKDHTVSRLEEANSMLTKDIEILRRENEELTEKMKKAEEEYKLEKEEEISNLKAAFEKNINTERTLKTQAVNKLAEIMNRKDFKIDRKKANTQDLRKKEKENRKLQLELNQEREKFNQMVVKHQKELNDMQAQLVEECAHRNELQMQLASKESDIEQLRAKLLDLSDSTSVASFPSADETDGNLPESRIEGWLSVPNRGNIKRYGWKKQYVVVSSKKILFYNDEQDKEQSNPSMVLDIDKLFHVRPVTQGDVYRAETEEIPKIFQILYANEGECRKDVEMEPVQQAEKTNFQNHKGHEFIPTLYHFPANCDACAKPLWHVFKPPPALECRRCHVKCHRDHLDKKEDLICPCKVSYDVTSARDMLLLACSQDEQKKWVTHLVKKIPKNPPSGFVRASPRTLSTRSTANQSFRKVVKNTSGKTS

As a reminder, the IC50 is the concentration that gives 50% inhibition. As to `O=C(Nc1ccc(-c2n[nH]c(=O)c3ccccc23)cc1)C1CCN(Cc2ccccc2)CC1` [Example 56, 1-benzyl-N-[4-(4-oxo-3,4-dihydrophthalazin-1-yl)phenyl]piperidine-4-carboxamide], the IC50 at ROCK1 and against ROCK2 was 1 to 50 µM throughout.
In the case of `Cc1ccc(N2CC(C(=O)Nc3ccc(-c4n[nH]c(=O)c5ccccc45)cc3)CC2=O)cc1` (stereo not shown) [Example 210, 1-(4-methylphenyl)-5-oxo-N-[4-(4-oxo-3,4-dihydrophthalazin-1-yl)phenyl]pyrrolidine-3-carboxamide], the IC50 on ROCK1 and against ROCK2 was 0.101 to 1 µM each time.
Take `O=C(Nc1ccc(-c2n[nH]c(=O)c3ccccc23)cc1)c1cnn(C2CCNC2)c1` (stereo not shown) [Example 397, N-(4-(4-Oxo-3,4-dihydrophthalazin-1-yl)phenyl)-1-(pyrrolidin-3-yl)-1H-pyrazole-4-carboxamide]: the IC50 on ROCK1 lay in the range of 1 to 50 µM; at ROCK2 it was 0.101 to 1 µM.
The like results for `O=C(Nc1ccc(-c2n[nH]c(=O)c3ccccc23)cc1)c1cccc(N2CCCC2)c1` [Example 62, N-[4-(4-oxo-3,4-dihydrophthalazin-1-yl)phenyl]-3-(pyrrolidin-1-yl)benzamide] were, in that order, 0.0001 to 0.1 µM and 0.0001 to 0.1 µM.
The like results for `O=C(Cc1ccc(-c2n[nH]c(=O)c3ccccc23)cc1)NCC1CC1` [Example 14, N-(cyclopropylmethyl)-2-[4-(4-oxo-3,4-dihydrophthalazin-1-yl)phenyl]acetamide] were, in that order, 1 to 50 µM and 1 to 50 µM.
The like results for `COc1cccc(-n2cc(C(=O)Nc3ccc(-c4n[nH]c(=O)c5ccccc45)cc3)nn2)c1` [Example 404, 1-(3-Methoxyphenyl)-N-(4-(4-oxo-3,4-dihydrophthalazin-1-yl)phenyl)-1H-1,2,3-triazole-4-carboxamide] were, in that order, 0.0001 to 0.1 µM and 0.0001 to 0.1 µM.
Consider `COc1ccc2c(=O)[nH]cc(-c3ccc(OC(=O)N4Cc5ccccc5C4)cc3)c2c1` [Example 269, 4-(6-Methoxy-1-oxo-1,2-dihydroisoquinolin-4-yl)phenyl isoindoline-2-carboxylate], for which the results for the half-maximal inhibitory concentration (IC50) on ROCK1 and at ROCK2 were 1 to 50 µM and 0.0001 to 0.1 µM, respectively.
Take `O=C(Nc1ccc(-c2n[nH]c(=O)c3ccccc23)cc1)c1csc(-c2ccc(C(F)(F)F)cc2)n1` [Example 48, N-[4-(4-oxo-3,4-dihydrophthalazin-1-yl)phenyl]-2-[4-(trifluoromethyl)phenyl]-1,3-thiazole-4-carboxamide]: the IC50 was 0.101 to 1 µM on ROCK1 and 0.0001 to 0.1 µM on ROCK2.
For `Cc1cc(NC(=O)Cc2ccc(-c3n[nH]c(=O)c4ccccc34)cc2)no1` [Example 27, N-(5-methyl-1,2-oxazol-3-yl)-2-[4-(4-oxo-3,4-dihydrophthalazin-1-yl)phenyl]acetamide], in that order: 1 to 50 µM and 0.0001 to 0.1 µM.
For `COc1ccc2c(c1)N(C(=O)Cc1ccc(-c3n[nH]c(=O)c4ccccc34)cc1)CC2` [Example 41, 4-{4-[2-(6-methoxy-2,3-dihydro-1H-indol-1-yl)-2-oxoethyl]phenyl}-1,2-dihydrophthalazin-1-one], in that order: 0.0001 to 0.1 µM and 0.0001 to 0.1 µM.
For `COc1ccccc1-n1nnc(C(=O)Nc2ccc(-c3n[nH]c(=O)c4ccccc34)cc2)c1C` [Example 405, 1-(2-Methoxyphenyl)-5-methyl-N-(4-(4-oxo-3,4-dihydrophthalazin-1-yl)phenyl)-1H-1,2,3-triazole-4-carboxamide], in that order: 0.0001 to 0.1 µM and 0.0001 to 0.1 µM.
With `COCC(O)COc1ccn2ncc(C(=O)Nc3ccc(-c4n[nH]c(=O)c5ccccc45)cc3)c2c1` (stereo not shown) [Example 194, 5-(2-hydroxy-3-methoxypropoxy)-N-[4-(4-oxo-3,4-dihydrophthalazin-1-yl)phenyl]pyrazolo[1,5-a]pyridine-3-carboxamide], the IC50 at ROCK1 lay in the range of 0.101 to 1 µM; at ROCK2, 0.0001 to 0.1 µM.
The like results for `O=C(Nc1ccc(-c2n[nH]c(=O)c3ccccc23)cc1)C1CCc2ccccc21` (stereo not shown) [Example 91, N-[4-(4-oxo-3,4-dihydrophthalazin-1-yl)phenyl]-2,3-dihydro-1H-indene-1-carboxamide] were, in that order, 1 to 50 µM and 0.0001 to 0.1 µM.
For `Cn1nc(C(F)(F)F)cc1C(=O)Nc1ccc(-c2n[nH]c(=O)c3ccccc23)cc1` [Example 408, 1-Methyl-N-(4-(4-oxo-3,4-dihydrophthalazin-1-yl)phenyl)-3-(trifluoromethyl)-1H-pyrazole-5-carboxamide], in that order: 0.101 to 1 µM and 0.0001 to 0.1 µM.
Consider `Cn1ccc(C(=O)Nc2ccc(-c3n[nH]c(=O)c4ccccc34)cc2)n1` [Example 227, 1-methyl-N-[4-(4-oxo-3,4-dihydrophthalazin-1-yl)phenyl]-1H-pyrazole-3-carboxamide], for which the IC50 on ROCK1 fell in the range of 0.101 to 1 µM; on ROCK2 it was 0.0001 to 0.1 µM.
For `O=C(Nc1ccc(-c2n[nH]c(=O)c3ccccc23)cc1)c1nc2c(s1)CCCC2` [Example 53, N-[4-(4-oxo-3,4-dihydrophthalazin-1-yl)phenyl]-4,5,6,7-tetrahydro-1,3-benzothiazole-2-carboxamide], in that order: 0.0001 to 0.1 µM and 0.0001 to 0.1 µM.
`Cn1cc(C(=O)Nc2ccc(-c3n[nH]c(=O)c4ccccc34)cc2)c2ccccc21` [Example 122, 1-methyl-N-[4-(4-oxo-3,4-dihydrophthalazin-1-yl)phenyl]-1H-indole-3-carboxamide]: the half-maximal inhibitory concentration (IC50) at ROCK1 and on ROCK2 was 0.0001 to 0.1 µM in each case.
For `CN(C)c1ccc(C(=O)Nc2ccc(-c3c[nH]c(=O)c4ccccc34)cc2)cc1` [Example 245, 4-(Dimethylamino)-N-(4-(1-oxo-1,2-dihydroisoquinolin-4-yl)phenyl)benzamide], the IC50 at ROCK1 and at ROCK2 was 0.0001 to 0.1 µM each time.
With `O=C(Nc1ccc(-c2n[nH]c(=O)c3ccccc23)cc1)c1ccc(-n2ccnc2)cc1` [Example 65, 4-(1H-imidazol-1-yl)-N-[4-(4-oxo-3,4-dihydrophthalazin-1-yl)phenyl]benzamide], the 50% inhibitory concentration (IC50) at ROCK1 and on ROCK2 was 0.0001 to 0.1 µM in each case.
With `CC(O)COc1ccn2ncc(C(=O)Nc3ccc(-c4n[nH]c(=O)c5ccccc45)cc3)c2c1` (stereo not shown) [Example 185, 5-(2-hydroxypropoxy)-N-[4-(4-oxo-3,4-dihydrophthalazin-1-yl)phenyl]pyrazolo[1 5-a]pyridine-3-carboxamide], the IC50 on ROCK1 and at ROCK2 was 0.0001 to 0.1 µM throughout.
For `O=C(Nc1ccc(-c2n[nH]c(=O)c3ccccc23)cc1)c1cnn(CC(F)F)c1` [Example 386, 1-(2,2-Difluoroethyl)-N-(4-(4-oxo-3,4-dihydrophthalazin-1-yl)phenyl)-1H-pyrazole-4-carboxamide], the IC50 lay within 0.101 to 1 µM at ROCK1 and 0.0001 to 0.1 µM against ROCK2.
In the case of `Cc1nn(-c2cccc(Cl)c2Cl)nc1C(=O)Nc1ccc(-c2n[nH]c(=O)c3ccccc23)cc1` [Example 238, 2-(2,3-dichlorophenyl)-5-methyl-N-[4-(4-oxo-3,4-dihydrophthalazin-1-yl)phenyl]-2H-1,2,3-triazole-4-carboxamide], the values for the IC50 at ROCK1 and against ROCK2 were 0.101 to 1 µM and 0.0001 to 0.1 µM, respectively.
The like results for `O=C(Nc1ccc(-c2n[nH]c(=O)c3ccccc23)cc1)C1CCN(c2ccc([N+](=O)[O-])cc2)CC1` [Example 54, 1-(4-nitrophenyl)-N-[4-(4-oxo-3,4-dihydrophthalazin-1-yl)phenyl]piperidine-4-carboxamide] were, in that order, 0.101 to 1 µM and 0.0001 to 0.1 µM.
